Test results taken from patent publication US20250276959A1, “SOLID STATE FORMS OF ZAVEGEPANT HYDROCHLORIDE AND PROCESS FOR PREPARATION THEREOF” (TEVA CZECH INDUSTRIES S.R.O., priority 2022, published 2025).

Experiment: Storage stability of the solid state form
Format: physicochemical
Experimental: Crystalline Form C2 of Zavegepant hydrochloride may have one or more advantageous properties, as discussed herein above. For example, Form C2 is stable for a period of at least for 6 months at temperature of about 25° C. and a relative humidity (“RH”) of 60% RH, and at a temperature of about 40° C. and 75% RH.

period for which the form is stable (temperature of about 25° C., 60% RH): ≥ 6 months
period for which the form is stable (temperature of about 40° C., 75% RH): ≥ 6 months
SMILES: Cc1cc(C[C@@H](NC(=O)N2CCC(c3cc4ccccc4[nH]c3=O)CC2)C(=O)N2CCN(C3CCN(C)CC3)CC2)cc2cn[nH]c12 [Form C2, (R)N-(3-(7-methyl-1H-indazol-5-yl)-1-(4-(1-methylpiperidin-4-yl)piperazin-1-yl)-1-oxopropan-2-yl)-4-(2-oxo-1,2-dihydroquinolin-3-yl)piperidine-1-carboxamide]
